From patent publication US8188135B2, “Compounds as cannabinoid receptor ligands” (priority 2008, dated 2012)
Like-named read-outs stand apart in the source and are kept apart here.

Assays:
rat CB2 [1] = target: T1, rat CB2 (Rattus norvegicus, UniProt Q9QZN9); experiment: rat CB2 radioligand binding assay ([3H]CP 55,940 competition); design: expressed in transfected cells; host or cells: HEK293; settings: HEK293 membranes, 0.5 nM [3H]CP 55,940
T1 sequence (Q9QZN9 1-360): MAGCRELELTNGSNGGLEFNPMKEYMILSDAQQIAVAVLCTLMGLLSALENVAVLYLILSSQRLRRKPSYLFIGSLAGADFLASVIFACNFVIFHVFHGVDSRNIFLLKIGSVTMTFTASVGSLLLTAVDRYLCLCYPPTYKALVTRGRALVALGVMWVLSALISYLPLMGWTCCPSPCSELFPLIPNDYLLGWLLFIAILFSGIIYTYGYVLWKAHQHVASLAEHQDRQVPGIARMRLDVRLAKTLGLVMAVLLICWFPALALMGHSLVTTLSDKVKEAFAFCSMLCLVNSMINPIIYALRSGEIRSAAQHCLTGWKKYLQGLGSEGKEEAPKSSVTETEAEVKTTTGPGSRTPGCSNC
In short: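 Competition binding against 0.5 nM [3H]CP 55,940 (pH 7.4 buffer with 0.5 mg/mL BSA, 30 °C, 45 min), with displacers spanning 0.01 nM–10 μM at five concentrations. Receptor source: stably transfected HEK293 membranes, 20 μg/well. Nonspecific binding defined by 10 μM unlabeled CP 55,940; readout by filtration and counting.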

rat CB2 [2] = target: T1, rat CB2; experiment: rat CB2 cyclase functional assay (HitHunter cAMP); type: cell-based; design: expressed in transfected cells; host or cells: HEK; settings: HEK cells, forskolin 18 μM
Procedure: The cyclase functional assays were performed using the HitHunter™ cAMP assay kit from DiscoveRx (Fremont, Calif.) according to vendor's protocol. Briefly, HEK cells expressing CB2 or CB1 receptors (rat or human) were detached using cell dissociation buffer (Invitrogen, Carlsbad, Calif.), dispersed and placed in suspension at 10,000 cells per well in 96 well plates prior to the assay. Cell suspensions were incubated at 37° C. for 20 min with variable concentrations of test ligands and or 10 μM CP 55,940-positive control in the presence of a fixed concentration of forskolin (18 μM for rat CB2 and 37 μM for rat CB1) in Dulbescco's phosphate-buffered saline (Invitrogen, Carlsbad, Calif.) supplemented with bovine serum albumin (0.01% final concentration). The reactions were terminated by the addition of lysis buffer and the luminescence was detected following the procedure according to the manufacturer's instructions. EC50 values were calculated using sigmoidal dose-response curve fitting from Prism (GraphPad).

human CB2 receptors = target: T2, human CB2 receptors (Homo sapiens, UniProt P34972); experiment: human CB2 radioligand binding assay ([3H]CP 55,940 competition); settings: HEK293 membranes, 0.5 nM [3H]CP 55,940
T2 construct: expressed in transfected cells; host or cells: HEK293
In short: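 Displacement of 0.5 nM [3H]CP 55,940 over 0.01 nM-10 μM test compound, measured on human CB2 membranes from stably transfected HEK293 cells. Incubation 90 min at 30 °C in Tris/EDTA/MgCl2/BSA, pH 7.4, then filter-bound radioactivity counted; 10 μM unlabeled CP 55,940 defined nonspecific binding.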

Rat CB1 = target: T3, Rat CB1 (Rattus norvegicus, UniProt P20272); experiment: rat CB1 cyclase functional assay (HitHunter cAMP); type: cell-based; settings: HEK cells, forskolin 37 μM
T3 construct: expressed in transfected cells; host or cells: HEK
In short: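 HEK cells expressing rat CB1 or CB2, 10,000 cells/well, incubated 20 min at 37° C with test ligands plus forskolin (37 μM for CB1, 18 μM for CB2) in DPBS with 0.01% BSA. cAMP read by enzyme-complementation luminescence after lysis; EC50 from sigmoidal dose-response fit.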

T2 sequence (P34972 whole entry): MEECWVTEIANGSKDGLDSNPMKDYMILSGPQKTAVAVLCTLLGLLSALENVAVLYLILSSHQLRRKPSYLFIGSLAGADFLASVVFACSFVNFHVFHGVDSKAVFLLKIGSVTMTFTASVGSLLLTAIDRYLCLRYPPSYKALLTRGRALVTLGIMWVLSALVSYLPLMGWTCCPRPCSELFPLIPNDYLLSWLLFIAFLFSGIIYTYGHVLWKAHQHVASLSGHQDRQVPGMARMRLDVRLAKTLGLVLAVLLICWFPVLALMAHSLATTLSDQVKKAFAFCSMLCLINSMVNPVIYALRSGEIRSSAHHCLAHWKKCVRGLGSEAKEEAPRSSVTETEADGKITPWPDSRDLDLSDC
T3 sequence (P20272 whole entry): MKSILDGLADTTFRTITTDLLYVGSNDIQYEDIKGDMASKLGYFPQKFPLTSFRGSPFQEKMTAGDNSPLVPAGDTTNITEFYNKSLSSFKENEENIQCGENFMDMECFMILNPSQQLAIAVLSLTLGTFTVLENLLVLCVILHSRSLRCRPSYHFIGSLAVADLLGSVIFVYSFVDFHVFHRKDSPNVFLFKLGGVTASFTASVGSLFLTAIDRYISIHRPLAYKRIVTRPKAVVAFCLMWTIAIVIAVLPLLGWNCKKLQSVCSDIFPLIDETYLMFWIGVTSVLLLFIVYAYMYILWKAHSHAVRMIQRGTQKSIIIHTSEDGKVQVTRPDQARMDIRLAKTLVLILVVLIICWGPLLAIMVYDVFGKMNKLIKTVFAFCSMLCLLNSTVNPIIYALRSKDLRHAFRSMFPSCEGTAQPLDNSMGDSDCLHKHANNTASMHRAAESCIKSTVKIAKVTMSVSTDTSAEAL

Structure (SMILES)	Ki (rat CB2 [1]; rat CB2 (Ki, nM))	EC50 (rat CB2 [2]; rat CB2 cyclase (EC50, nM))	Ki (human CB2 receptors; human CB2 (Ki, nM))	EC50 (Rat CB1; Rat CB1 cyclase (EC50, nM))	Ki (rat CB2 [1]; read-out: rat CB2 (Ki))	EC50 (rat CB2 [2]; read-out: rat CB2 cyclase (EC50))	Ki (human CB2 receptors; read-out: human CB2 (Ki))	EC50 (Rat CB1; read-out: Rat CB1 cyclase (EC50))
CN1CCC[C@H]1COc1ccc(C(F)(F)F)cc1C(=O)/N=c1\oc(C(C)(C)C)cn1C[C@H]1CCCO1 [Example 32, N-[(2Z)-5-tert-butyl-3-[(2R)-tetrahydrofuran-2-ylmethyl]-1,3-oxazol-2(3H)-ylidene]-2-{[(2S)-1-methylpyrrolidin-2-yl]methoxy}-5-(trifluoromethyl)benzamide]	75 nM	0.6 nM	88 nM	3870 nM				
CN1CCC[C@H]1COc1ccc(C(F)(F)F)cc1C(=O)/N=c1\cc(C(C)(C)C)on1C[C@H]1CCCO1 [Example 39, N-[(3E)-5-tert-butyl-2-[(2R)-tetrahydrofuran-2-ylmethyl]isoxazol-3(2H)-ylidene]-2-{[(2S)-1-methylpyrrolidin-2-yl]methoxy}-5-(trifluoromethyl)benzamide]	46 nM	0.63 nM	62 nM	2620 nM				
CCS(=O)(=O)NCCOc1ccc(C(F)(F)F)cc1C(=O)/N=c1\cc(C(C)(C)C)n(C)n1C[C@H]1CCCO1 [Example 50]	8.5 nM	0.12 nM	21 nM	1180 nM				
CCOCCOCCOc1ccc(C(F)(F)F)cc1C(=O)/N=c1\cc(C(C)(C)C)n(C)n1C[C@H]1CCCO1 [Example 47, N-{(3E)-5-tert-butyl-1-methyl-2-[(2R)-tetrahydrofuran-2-ylmethyl]-1,2-dihydro-3H-pyrazol-3-ylidene}-2-[2-(2-ethoxyethoxy)ethoxy]-5-(trifluoromethyl)benzamide]	89 nM	5.6 nM	70 nM	> 27000 nM				
CSCCOc1ccc(C(F)(F)F)cc1C(=O)/N=c1\cc(C(C)(C)C)n(C)n1C[C@H]1CCCO1 [Example 57]	1.9 nM	1.4 nM	11 nM	7530 nM				
CSCCCOc1ccc(C(F)(F)F)cc1C(=O)/N=c1\cc(C(C)(C)C)n(C)n1C[C@H]1CCCO1 [Example 58]	5.1 nM	0.7 nM	3.9 nM	> 27000 nM				
Cn1c(C(C)(C)C)c/c(=N\C(=O)c2cc(C(F)(F)F)ccc2OC[C@@H]2CCCO2)n1C[C@H]1CCCO1 [Example 8, N-{(3E)-5-tert-butyl-1-methyl-2-[(2R)-tetrahydrofuran-2-ylmethyl]-1,2-dihydro-3H-pyrazol-3-ylidene}-2-[(2S)-tetrahydrofuran-2-ylmethoxy]-5-(trifluoromethyl)benzamide]	4.3 nM	0.59 nM	13 nM	6340 nM				
CN1CC[C@H]1COc1ccc(C(F)(F)F)cc1C(=O)/N=c1\oc(C(C)(C)C)cn1C[C@H]1CCCO1 [Example 74, N-[(2Z)-5-tert-butyl-3-[(2R)-tetrahydrofuran-2-ylmethyl]-1,3-oxazol-2(3 H)-ylidene]-2-{[(2S)-1-methylazetidin-2-yl]methoxy}-5-(trifluoromethyl)benzamide]	96 nM	0.42 nM	188 nM	3350 nM				
Cn1c(C(C)(C)C)c/c(=N\C(=O)c2cc(C(F)(F)F)ccc2OC[C@@H]2COC(C)(C)O2)n1C[C@H]1CCCO1 [Example 16, N-{(3E)-5-tert-butyl-1-methyl-2-[(2R)-tetrahydrofuran-2-ylmethyl]-1,2-dihydro-3H-pyrazol-3-ylidene}-2-{[(4R)-2,2-dimethyl-1,3-dioxolan-4-yl]methoxy}-5-(trifluoromethyl)benzamide]	23 nM	0.47 nM	40 nM	> 27000 nM				
Cn1c(C(C)(C)C)c/c(=N\C(=O)c2cc(C(F)(F)F)ccc2OC[C@@H]2C=CCO2)n1C[C@H]1CCCO1 [Example 25, N-{(3E)-5-tert-1-methyl-2-[(2R)-tetrahydrofuran-2-ylmethyl]-1,2-dihydro-3H-pyrazol-3-ylidene}-2-[(2S)-2,5-dihydrofuran-2-ylmethoxy]-5-(trifluoromethyl)benzamide]					20 nM	0.3 nM	31 nM	531 nM
Cn1c(C(C)(C)C)c/c(=N\C(=O)c2cc(C(F)(F)F)ccc2OCCC2=CCCC2)n1C[C@H]1CCCO1 [Example 53, N-{(3E)-5-tert-butyl-1-methyl-2-[(2R)-tetrahydrofuran-2-ylmethyl]-1,2-dihydro-3H-pyrazol-3-ylidene}-2-(2-cyclopent-1-en-1-ylethoxy)-5-(trifluoromethyl)benzamide]	2.8 nM	2.7 nM	1.5 nM	1970 nM				
Cn1c(C(C)(C)C)c/c(=N\C(=O)c2cc(C(F)(F)F)ccc2OCc2cnccn2)n1C[C@H]1CCCO1 [Example 40, N-{(3E)-5-tert-butyl-1-methyl-2-[(2R)-tetrahydrofuran-2-ylmethyl]-1,2-dihydro-3H-pyrazol-3-ylidene}-2-(pyrazin-2-ylmethoxy)-5-(trifluoromethyl)benzamide]	73 nM	3.3 nM	126 nM	> 27000 nM				
Cn1c(C(C)(C)C)c/c(=N\C(=O)c2cc(C(F)(F)F)ccc2OCc2cccnc2)n1C[C@H]1CCCO1 [Example 43, N-{(3E)-5-tert-butyl-1-methyl-2-[(2R)-tetrahydrofuran-2-ylmethyl]-1,2-dihydro-3H-pyrazol-3-ylidene}-2-(pyridin-3-ylmethoxy)-5-(trifluoromethyl)benzamide]	56 nM	2.4 nM	220 nM	> 27000 nM				
Cn1c(C(C)(C)C)c/c(=N\C(=O)c2cc(C(F)(F)F)ccc2OCCS(C)(=O)=O)n1C[C@H]1CCCO1 [Example 56]	28 nM	0.93 nM	66 nM	2780 nM				
Cn1c(C(C)(C)C)c/c(=N\C(=O)c2cc(C(F)(F)F)ccc2OC[C@@H]2CCCN2)n1C[C@H]1CCCO1 [Example 62, N-{(3E)-5-tert-butyl-1-methyl-2-[(2R)-tetrahydrofuran-2-ylmethyl]-1,2-dihydro-3 H-pyrazol-3-ylidene}-2-[(2S)-pyrrolidin-2-ylmethoxy]-5-(trifluoromethyl)benzamide]	21 nM	0.28 nM	82 nM	> 27000 nM				
CCCCn1nc(C(C)(C)C)s/c1=N\C(=O)c1cc(C(F)(F)F)ccc1OC[C@@H]1CCCN1C [Example 29, N-[(2Z)-3-butyl-5-tert-butyl-1,3,4-thiadiazol-2(3H)-ylidene]-2-{[(2S)-1-methylpyrrolidin-2-yl]methoxy}-5-(trifluoromethyl)benzamide]	11 nM	3.7 nM	14 nM	1680 nM				
CC1CCC(COc2ccc(C(F)(F)F)cc2C(=O)N=c2cc(C(C)(C)C)n(C)n2CC2CCCO2)O1 (single isomer, unassigned) [Example 37]	16 nM	0.45 nM	57 nM	8590 nM				
